Laboratory results taken from US20220168392A1 (priority 2019, published 2022).
“And” between values parts separate entries of the source, which are not always exact repeats. Identical values can stand only once. Square brackets hold non-standard residues; d marks the D form. * marks the point of attachment. 2Nal = N[C@@H](Cc1ccc2ccccc2c1)C(=O)O; Propionyl = CCC(=O)*; Sar = CNCC(=O)O

Tested on: CD2F1 male mice exposed to TBI
Assay: 30-day survival after total body irradiation (TBI) in CD2F1 mice
Assay type: in vivo, mouse
Conditions: for Survival Differential (Treatment-Vehicle) / Survival treatment: CD2F1 M; for Dose Reduction Factor: male CD2F1
[1] = 9.75 Gy, 2 mg/kg single dose, Pre −24 hr
[2] = 9.75 Gy, 3 mg/kg single dose, Post 4 hr
[3] = 9.75 Gy, 3 mg/kg single dose, Pre −24 hr
[4] = 10.5 Gy, 0.1 mg/kg single dose, Pre −24 hr
[5] = 10.5 Gy, 0.3 mg/kg single dose, Pre −24 hr
[6] = 10.5 Gy, 1 mg/kg single dose, Pre −24 hr
[7] = 10.5 Gy, 3 mg/kg single dose, Pre −24 hr, listed as TPOm, 3 mg/kg
[8] = 11 Gy, 1 mg/kg single dose, Pre −2 hr
[9] = 11 Gy, 1 mg/kg single dose, Pre −12 hr
[10] = 11 Gy, 1 mg/kg single dose, Pre −24 hr, listed as TPOm, 1 mg/kg
[11] = 11.5 Gy, 3 mg/kg single dose, Pre −24 hr
[12] = 11.75 Gy, 3 mg/kg single dose, Pre −24 hr
[13] = 12 Gy, 1 mg/kg single dose, Pre −24 hr
[14] = 12 Gy, 3 mg/kg single dose, Pre −24 hr
[15] = 12.5 Gy, 1 mg/kg single dose, Pre −24 hr
[16] = 12.5 Gy, 3 mg/kg single dose, Pre −24 hr
[17] = 13 Gy, 1 mg/kg single dose, Pre −24 hr
[18] = 13.5 Gy, 1 mg/kg single dose, Pre −24 hr
[19] = 14 Gy, 1 mg/kg single dose, Pre −24 hr

Which results are given for “methoxypolyethyleneglycol20000-propionyl-L-Isoleucyl-L-Glutamyl-Glycyl-L-Prolyl-L-Threonyl-L-Leucyl-L-Arginyl-L-Glutaminyl-L-2-Naphthylalanyl-L-Leucyl-L-Alanyl-L-Alanyl-L-Arginyl-Sarcosyl-Ne-(methoxypolyethyleneglycol20000-propionyl-L-Isoleucyl-L-Glutamyl-Glycyl-L-Prolyl-L-Threonyl-L-Leucyl-L-Arginyl-L-Glutaminyl-L-2-Naphthylalanyl-L-Leucyl-L-Alanyl-L-Alanyl-L-Arginyl-Sarcosyl-)-Lysinamide ({mPEG 20 kDa-Propionyl}-IEGPTLRQ[2Nal]LAAR[Sar]K-NH2; also: dimer: second identical mPEG-propionyl chain on Lys Nε of C-terminal lysinamide) [RWJ-800088]”?
Survival Differential (Treatment-Vehicle) [1]: 96%; Survival treatment [1]: 96%; Survival Differential (Treatment-Vehicle) [2]: 33%; Survival treatment [2]: 54%; Survival Differential (Treatment-Vehicle) [3]: 100%; Survival treatment [3]: 100%; Survival Differential (Treatment-Vehicle) [4]: 90%; Survival treatment [4]: 90%; Survival Differential (Treatment-Vehicle) [5]: 95%; Survival treatment [5]: 95%; Survival Differential (Treatment-Vehicle) [6]: 100%; Survival treatment [6]: 100%; Survival Differential (Treatment-Vehicle) [7]: 90% and 100%; Survival treatment [7]: 90% and 100%; Survival Differential (Treatment-Vehicle) (11 Gy, 0.1 mg/kg single dose, Pre −24 hr): 54%; Survival treatment (11 Gy, 0.1 mg/kg single dose, Pre −24 hr, 0.1 mg/kg): 54%; Survival treatment (11 Gy, 0.1 mg/kg single dose, Pre −24 hr, listed as TPOm, 0.1 mg/kg): 54%; Survival Differential (Treatment-Vehicle) (11 Gy, 0.3 mg/kg single dose, Pre −24 hr): 83%; Survival treatment (11 Gy, 0.3 mg/kg single dose, Pre −24 hr, 0.3 mg/kg): 83%; Survival treatment (11 Gy, 0.3 mg/kg single dose, Pre −24 hr, listed as TPOm, 0.3 mg/kg): 83%; Survival Differential (Treatment-Vehicle) [8]: 17%; Survival treatment [8]: 17%; Survival Differential (Treatment-Vehicle) [9]: 100%; Survival treatment [9]: 100%; Survival treatment (11 Gy, 1 mg/kg single dose, Pre −24 hr, 1 mg/kg): 96%; Survival Differential (Treatment-Vehicle) [10]: 71% and 96% and 100%; Survival treatment [10]: 71% and 96% and 100%; Survival Differential (Treatment-Vehicle) (11 Gy, 3 mg/kg single dose, Pre −24 hr): 100%; Survival treatment (11 Gy, 3 mg/kg single dose, Pre −24 hr, 3 mg/kg): 100%; Survival treatment (11 Gy, 3 mg/kg single dose, Pre −24 hr, listed as TPOm, 3 mg/kg): 100%; Survival Differential (Treatment-Vehicle) [11]: 92%; Survival treatment [11]: 92%; Survival Differential (Treatment-Vehicle) [12]: 75%; Survival treatment [12]: 75%; Survival Differential (Treatment-Vehicle) [13]: 88%; Survival treatment [13]: 88%; Survival Differential (Treatment-Vehicle) [14]: 83%; Survival treatment [14]: 83%; Survival Differential (Treatment-Vehicle) [15]: 54%; Survival treatment [15]: 54%; Survival Differential (Treatment-Vehicle) [16]: 46%; Survival treatment [16]: 46%; Survival Differential (Treatment-Vehicle) [17]: 42%; Survival treatment [17]: 42%; Survival Differential (Treatment-Vehicle) [18]: 13%; Survival treatment [18]: 13%; Survival Differential (Treatment-Vehicle) [19]: 1%; Survival treatment [19]: 1%; enhancement in survival efficacy (CD2F1 male, 1 mg/kg administered 24 h prior to radiation exposure (FIG. 13)): ~100%; survival (CD2F1 male, 9.35 Gy, 0.3 mg/kg 24 h pre-TBI (FIG. 3A)): 83%; survival, 3-dose regimen (CD2F1 male, 9.35 Gy, 0.3 mg/kg/dose SC at 24 h+48 h+72 h post-TBI): 50%; survival, 2-dose regimen (CD2F1 male, 9.35 Gy, 0.3 mg/kg/dose SC at 24 h+48 h post-TBI): 54%; survival (CD2F1 male, 9.75 Gy, RWJ-800088 treated groups 0.1-3 mg/kg 24 h pre-TBI (FIG. 3B)): 92-100%; percent survival (CD2F1 male, 10.5 Gy, range of doses 0.1-3 mg/kg 24 h pre-TBI (FIG. 3C)): 90-100%; Effects (Mice, whole body irradiation, whole wrapped cell: Enhanced survival, mitigation against thrombocytopenia, anemia, reduced adhesion protein expression on endothelial cells): Enhanced survival,; Dose Reduction Factor (1 mg/kg 24 h post-TBI (FIG. 14)): 1.05; Dose Reduction Factor (1 mg/kg 24 h pre-TBI (FIG. 15)): 1.38; optimum single dose as mitigator of radiation induced mortality in mice (post-TBI administration): 0.3 to 1.0 mg/kg
